# Patent US11753408B2, “Compounds and method for blocking transmission of malarial parasite” (The United States of America, as represented by the …, priority 2016, dated 2023)
# Where two headings read alike, the source gives them in different places.
# How the values were obtained:
# [1] = tested on: Stage III-V gametocytes (blood stage P. falciparum parasites); test: In vitro drug activity on gametocytes (AlamarBlue viability assay); format: cell-based, Plasmodium falciparum; conditions: read-out: Gametocyte EC50
# In short: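 P. falciparum 3D7 stage III–V gametocytes (also HB3, Dd2), enriched by 50 mM N-acetylglucosamine and Percoll gradient, seeded at 20,000/well with compound for 72 h at 37° C, 5% CO2. AlamarBlue then added for 24 h; viability read as fluorescence (Ex 525, Em 598 nm).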
# Solubility at pH 7.4 = format: physicochemical
# [2] = tested on: Asexual parasites of P. falciparum strain 3D7; test: In vitro drug activity on asexual parasites (SYBR Green assay); format: cell-based, Plasmodium falciparum
# In short: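 3D7 parasites at 0.5% parasitemia and 2% hematocrit were exposed to drugs (DMSO ≤0.5%) for 72 h under standard culture conditions, in duplicate. After freeze-thaw lysis, SYBR Green I lysis buffer was added for 30 min at room temperature, and fluorescence was read at 490/520 nm.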
# [3] = Microsomal stability (rat); format: in vitro ADME; conditions: rat microsomes
# PAMPA permeability = format: in vitro ADME
# [4] = P. falciparum stage III-V gametocytes, 72 h incubation, AlamarBlue
# [5] = P. falciparum 3D7 asexual parasites, 72 h, SYBR Green
SMILES,"EC50 [1, 4]",Sol @ pH 7.4 (ug/mL) (Solubility at pH 7.4),"EC50 [2, 5]",Microsomal Stability (rat) T1/2 [3],PAMPA Permeability (×10^6 cm/s) (PAMPA permeability),EC50 [1],Sol @ pH 7.4 (Solubility at pH 7.4),EC50 [2],PAMPA Permeability (PAMPA permeability)
COC(=O)c1cc(-c2ccc3ncc4ccc(=O)n(-c5ccc(S(C)(=O)=O)cc5)c4c3c2)ccc1Cl [Compound 49],1990 nM,<1.0 ug/mL,3190 nM,4.3 min,235.8 ×10^6 cm/s,–,–,–,–
CN(C)C(=O)c1cc(-c2ccc3ncc4ccc(=O)n(-c5ccc(S(C)(=O)=O)cc5)c4c3c2)ccc1Cl [Compound 50],1830 nM,2.7 ug/mL,932 nM,3 min,164.4 ×10^6 cm/s,–,–,–,–
CS(=O)(=O)c1ccc(-n2c(=O)ccc3cnc4ccc(-c5ccc(Cl)c(C(N)=O)c5)cc4c32)cc1 [Compound 51],291 nM,4.3 ug/mL,203 nM,>30.0 min,43.1 ×10^6 cm/s,–,–,–,–
CS(=O)(=O)c1ccc(-n2c(=O)ccc3cnc4ccc(-c5ccc(Cl)c(C(=O)N6CCOCC6)c5)cc4c32)cc1 [Compound 52],35200 nM,57.2 ug/mL,14700 nM,<1.0 min,200.8 ×10^6 cm/s,–,–,–,–
CCNC(=O)c1cc(-c2ccc3ncc4ccc(=O)n(-c5ccc(S(C)(=O)=O)cc5)c4c3c2)ccc1Cl [Compound 53],6850 nM,9.6 ug/mL,3790 nM,2.8 min,115.9 ×10^6 cm/s,–,–,–,–
CN(C)Cc1ccc(-c2ccc3ncc4ccc(=O)n(-c5ccc(S(=O)(=O)NC6CC6)cc5)c4c3c2)cc1 [Compound 57],840 nM,7.9 ug/mL,381 nM,>30.0 min,527.8 ×10^6 cm/s,–,–,–,–
C[S+]([O-])c1ccc(-n2c(=O)ccc3cnc4ccc(-c5ccc(Cl)cc5)cc4c32)cc1 (stereo not shown) [Compound 59],25.4 nM,<0.10 ug/mL,9.07 nM,12.8 min,<1.00 ×10^6 cm/s,–,–,–,–
CS(=O)(=O)c1ccc(-n2c(=O)ccc3cnc4ccc(-c5cccc(CN)c5)cc4c32)cc1 [Compound 64],1050 nM,1.4 ug/mL,489 nM,>30 min,<12.3 ×10^6 cm/s,–,–,–,–
CS(=O)(=O)c1ccc(-n2c(=O)ccc3cnc4ccc(-c5ccc(C=O)cc5)cc4c32)cc1 [Compound 65],461 nM,<1 ug/mL,43.1 nM,2.9 min,5.4 ×10^6 cm/s,–,–,–,–
Nc1ccc(-c2ccc3ncc4ccc(=O)n(-c5cccc(S(N)(=O)=O)c5)c4c3c2)cn1 [Compound 77],295 nM,33.6 ug/mL,81.7 nM,>30.0 min,<1.0 ×10^6 cm/s,–,–,–,–
CS(=O)(=O)c1ccc(-n2c(=O)ccc3cnc4ccc(-c5ccc(N)nc5)cc4c32)cc1 [Compound 79],22.8 nM,<1.0 ug/mL,4.76 nM,>30.0 min,<11.8 ×10^6 cm/s,–,–,–,–
O=C(c1ccc(-n2c(=O)ccc3cnc4ccc(-c5ccc(Cl)cc5)cc4c32)cc1)N1CCOCC1 [Compound 85],–,–,–,9 min,–,77.6 nM,<1.0 ug/mL,6.89 nM,794 ×10⁻⁶ cm/s
CNC(=O)c1ccc(-n2c(=O)ccc3cnc4ccc(-c5ccc(Cl)cc5)cc4c32)cc1 [Compound 99],–,–,–,16.9 min,–,130 nM,<1.0 ug/mL,46.7 nM,1050 ×10⁻⁶ cm/s
CN(C)Cc1ccc(-c2ccc3ncc4ccc(=O)n(-c5ccc6c(c5)CNC6=O)c4c3c2)cc1 [Compound 340],616 nM,>68.0 ug/mL,266 nM,>30.0 min,5.2 ×10^6 cm/s,–,–,–,–
CN(C)Cc1ccc(-c2ccc3ncc4ccc(=O)n(-c5ccc6c(c5)CCNC6=O)c4c3c2)cc1 [Compound 342],350 nM,31.01 ug/mL,130 nM,>30.00 min,12.72 ×10^6 cm/s,–,–,–,–
CN(C)Cc1ccc(-c2ccc3ncc4ccc(=O)n(-c5ccc6c(c5)CN(C)C6=O)c4c3c2)cc1 [Compound 347],1720 nM,>70.0 ug/mL,668 nM,>30.0 min,317.6 ×10^6 cm/s,–,–,–,–
CCN1Cc2cc(-n3c(=O)ccc4cnc5ccc(-c6ccc(CN(C)C)cc6)cc5c43)ccc2C1=O [Compound 348],2450 nM,>72.0 ug/mL,1460 nM,>30.0 min,289.4 ×10^6 cm/s,–,–,–,–
CN(C)Cc1ccc(-c2ccc3ncc4ccc(=O)n(-c5ccc6c(c5)C(=O)NC6)c4c3c2)cc1 [Compound 349],26800 nM,>68.0 ug/mL,14200 nM,>30.0 min,2.5 ×10^6 cm/s,–,–,–,–
CN(C)Cc1ccc(-c2ccc3ncc4ccc(=O)n(-c5ccc6c(c5)CN(C5CC5)C6=O)c4c3c2)cc1 [Compound 354],1910 nM,>74.0 ug/mL,687 nM,>30.0 min,292.3 ×10^6 cm/s,–,–,–,–
CN(C)Cc1ccc(-c2ccc3ncc4ccc(=O)n(-c5ccc6c(c5)CCC(=O)N6)c4c3c2)cc1 [Compound 357],2200 nM,>70.00 ug/mL,863 nM,>30.00 min,40.53 ×10^6 cm/s,–,–,–,–
CN1Cc2cc(-n3c(=O)ccc4cnc5ccc(-c6ccc(F)cc6)cc5c43)ccc2C1=O [Compound 360],736 nM,0.73 ug/mL,170 nM,19.2 min,635.05 ×10^6 cm/s,–,–,–,–
CCN1Cc2cc(-n3c(=O)ccc4cnc5ccc(-c6ccc(F)cc6)cc5c43)ccc2C1=O [Compound 361],6440 nM,<0.10 ug/mL,1580 nM,>30.00 min,199.84 ×10^6 cm/s,–,–,–,–
O=C1NCc2cc(-n3c(=O)ccc4cnc5ccc(-c6ccc(F)cc6)cc5c43)ccc21 [Compound 362],81.7 nM,0.6 ug/mL,8.86 nM,7.4 min,98.56 ×10^6 cm/s,–,–,–,–
NC1(c2ccc(-c3ccc4ncc5ccc(=O)n(-c6ccc7c(c6)CNC7=O)c5c4c3)cc2)CCC1 [Compound 368],2200 nM,6.5 ug/mL,1280 nM,>30 min,2.9 ×10^6 cm/s,–,–,–,–
O=C1NCc2cc(-n3c(=O)ccc4cnc5ccc(-c6ccc(CN7CCOCC7)cc6)cc5c43)ccc21 [Compound 369],2940 nM,15.7 ug/mL,1230 nM,26 min,55 ×10^6 cm/s,–,–,–,–
NCc1cccc(-c2ccc3ncc4ccc(=O)n(-c5ccc6c(c5)CNC6=O)c4c3c2)c1 [Compound 370],4120 nM,27.3 ug/mL,296 nM,>30 min,<1 ×10^6 cm/s,–,–,–,–
